From US9340577B2, “HLA binding motifs and peptides and their uses” (priority 1992, dated 2016)
No end group written: not given here.

Experiments:
Assay in all cases: biochemical
DRB4*0101 = DRB4*0101 (Homo sapiens, UniProt P01903+P13762, G164S); type: binding
DRB1*1302 = DRB1*1302 (Homo sapiens, UniProt P01903+P01911, A100E/A169T/K41T/L162R/M171V/P40S/Q125H/Q178H/Q39Y/Q99D/R42S/S66N/T262R/V115G/W38E/Y61H); type: binding
DR1 (DRB1*0101) = DR1 (DRB1*0101) (Homo sapiens, UniProt P01903+P01911, A100R/D57E/F55L/F60I/F76Y/I96L/L162R/M171V/P40L/Q125E/R42F/V115G/Y59C); type: binding
DRB1*1501 = DRB1*1501 (Homo sapiens, UniProt P01903+P01911); type: binding
DR4w4 (DRB1*0401) = DR4w4 (DRB1*0401) (Homo sapiens, UniProt P01903+P01911, A100K/A169T/F76Y/I96L/K127E/L162R/M171V/N62H/P40V/Q125Y/R42H/S133A/S149N/S66Y/V115G/V209L/W38E); type: binding
DRB1*0301 = DRB1*0301 (Homo sapiens, UniProt P01903+P01911, A100K/A102G/A103R/A169T/F55Y/I96L/K41T/L162R/M171V/P40S/Q125H/Q178H/Q39Y/R42S/S66N/T106N/T262R/W38E/Y61H); type: binding
DRB1*0405 = DRB1*0405 (Homo sapiens, UniProt P01903+P01911, A100R/A169T/D86S/F76Y/I96L/K127E/L162R/M171V/N62H/P40V/Q125Y/R42H/S133A/S149N/S66Y/V115G/V209L/W38E); type: binding
DR7 (DRB1*0701) = DR7 (DRB1*0701) (Homo sapiens, UniProt P01903+P01911, A100R/A102G/A103Q/D57E/D86V/E43K/F76Y/K127E/L162R/M171V/P40G/Q125H/Q99D/R33Q/R42Y/R54Q/S133A/S66F/T210M/V115G/Y107V/Y59L/Y89S); type: binding
DRB5*0101 = DRB5*0101 (Homo sapiens, UniProt P01903+Q30154); settings: Binding affinity DRB5 *0101
DRB1*1201 = DRB1*1201 (Homo sapiens, UniProt P01903+P01911, A100R/A169T/D57E/D86V/F55L/H45Y/K41T/L162R/M171V/P40S/Q125H/Q178H/Q39Y/Q99D/R42G/S66L/T262R/V114A/V67L/W38E/Y59H/Y61H/Y89S); type: binding
DRB1*0802 = DRB1*0802 (Homo sapiens, UniProt P01903+P01911, A100R/A103L/A169T/F76Y/H45Y/I96F/K41T/L162R/M171V/P40S/Q125H/Q178H/Q39Y/Q99D/R218S/R42G/S66Y/V115G/W38E); type: binding
DRB1*1101 = DRB1*1101 (Homo sapiens, UniProt P01903+P01911, A100R/A169T/A87E/I96F/K41T/L162R/M171V/P40S/Q125H/Q178H/Q39Y/Q99D/R42S/S66Y/T262R/V115G/W38E); settings: Binding affinity DRB1 *1101
DRB1*0901 = DRB1*0901 (Homo sapiens, UniProt P01903+P01911, A100R/A103E/D57H/D86V/F55Y/F60I/F76Y/I96F/K127E/L162R/M171V/P40D/Q125H/Q99R/R33Q/R42F/S133A/S66N/T210M/V115G/W38K/Y107V/Y59G/Y89S); type: binding

Sequence of DRB1*1101 (P01903 26-254 limits assumed, other chains not shown): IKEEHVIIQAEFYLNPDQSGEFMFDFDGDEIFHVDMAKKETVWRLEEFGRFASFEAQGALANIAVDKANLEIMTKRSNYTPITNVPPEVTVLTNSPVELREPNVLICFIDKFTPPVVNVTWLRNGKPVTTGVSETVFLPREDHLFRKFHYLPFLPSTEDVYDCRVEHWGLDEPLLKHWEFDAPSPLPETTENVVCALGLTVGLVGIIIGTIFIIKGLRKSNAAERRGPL
Sequence of DRB1*0301 (P01903 26-254 limits assumed, other chains not shown): as above
Sequence of DRB1*1302 (P01903 26-254 limits assumed, other chains not shown): as above

| Compound | IC50 (DRB4*0101) [nM] | IC50 (DRB1*1302) [nM] | IC50 (DR1 (DRB1*0101)) [nM] | IC50 (DRB1*1501) [nM] | IC50 (DR4w4 (DRB1*0401)) [nM] | IC50 (DRB1*0301) [nM] | IC50 (DRB1*0405) [nM] | IC50 (DR7 (DRB1*0701)) [nM] | IC50 (DRB5*0101) [nM] | IC50 (DRB1*1201) [nM] | IC50 (DRB1*0802) [nM] | IC50 (DRB1*1101) [nM] | IC50 (DRB1*0901) [nM] |
| --- | --- | --- | --- | --- | --- | --- | --- | --- | --- | --- | --- | --- | --- |
| CC[C@H](C)[C@H](N)C(=O)N[C@@H](CCC(=O)O)C(=O)N[C@@H](Cc1ccccc1)C(=O)N[C@H](C(=O)N[C@H](C(=O)N[C@@H](Cc1ccccc1)C(=O)N[C@@H](CC(C)C)C(=O)NCC(=O)N[C@@H](C)C(=O)N[C@@H](CC(C)C)C(=O)N[C@@H](CCCCN)C(=O)N[C@@H](CO)C(=O)N[C@@H](Cc1ccccc1)C(=O)N[C@@H](CC(C)C)C(=O)N[C@@H](CCCCN)C(=O)O)[C@@H](C)O)[C@@H](C)CC [Peptide 89.0033] | 44 | > 20000 | 8.6 | 77 | 74 | 2300 | 1640 | 410 | 34 | 410 | – | – | – |
| CC[C@H](C)[C@H](NC(=O)[C@H](Cc1c[nH]c2ccccc12)NC(=O)[C@H](CCC(=O)O)NC(=O)[C@@H]1CCCN1)C(=O)N[C@@H](CCC(=O)O)C(=O)N[C@@H](CCCNC(=N)N)C(=O)N[C@@H](CCC(N)=O)C(=O)N[C@H](C(=O)N[C@H](C(=O)N[C@@H](CC(C)C)C(=O)N[C@@H](CCC(N)=O)C(=O)N[C@@H](Cc1c[nH]cn1)C(=O)N[C@@H](CO)C(=O)N[C@@H](Cc1ccccc1)C(=O)N[C@@H](CC(N)=O)C(=O)O)C(C)C)[C@@H](C)O [Peptide 89.0049] | 2 | 938 | 5240 | – | 18 | 210 | 440 | 2870 | > 20000 | 7980 | 707 | 401 | 4520 |
| CC(C)C[C@H](NC(=O)[C@H](CCC(N)=O)NC(=O)[C@H](CCCCN)NC(=O)[C@@H](NC(=O)[C@H](CC(C)C)NC(=O)[C@H](CCC(N)=O)NC(=O)[C@@H](NC(=O)[C@H](C)NC(=O)[C@H](CO)NC(=O)[C@@H](NC(=O)[C@@H](NC(=O)[C@H](CC(=O)O)NC(=O)[C@@H](N)CC(=O)O)[C@@H](C)O)C(C)C)[C@@H](C)O)C(C)C)C(=O)N[C@@H](CCC(N)=O)C(=O)N[C@@H](Cc1c[nH]cn1)C(=O)O [Peptide 89.0162] | 128 | 73 | – | 601 | 100 | 241 | 674 | – | 578 | 275 | – | 943 | 1970 |
| DHDITDDSDIAYKYA [Peptide 90.0117] | 577 | 535 | > 20000 | > 20000 | 510 | 100 | 2210 | > 20000 | 6830 | > 20000 | > 20000 | > 20000 | – |
| DNDIVDDSEIAYKYA [Peptide 90.0037] | > 20000 | > 20000 | > 20000 | – | 4620 | 28 | > 20000 | > 20000 | > 20000 | 5300 | > 20000 | > 20000 | > 20000 |
| DNDVMDDSEIAYKYA [Peptide 90.0069] | > 20000 | > 20000 | > 20000 | 8220 | 3680 | 53 | 10100 | – | > 20000 | 12700 | > 20000 | > 20000 | > 20000 |
| DNELTDDSDIAYYYA [Peptide 90.0085] | > 20000 | > 20000 | > 20000 | – | > 20000 | 98 | > 20000 | > 20000 | > 20000 | > 20000 | > 20000 | > 20000 | > 20000 |
| EDEIDTDLDGFIDDS [Peptide 90.0126] | 823 | 67 | 320 | 270 | > 20000 | 128 | 1020 | – | – | 138 | – | > 20000 | – |
| EIYIIEEDTCTMVTG [Peptide 90.0203] | 1740 | 577 | 1360 | 6500 | 258 | 273 | 3090 | – | > 20000 | > 20000 | > 20000 | – | > 20000 |
| ENSIQADTEAARALF [Peptide 90.0078] | > 20000 | > 20000 | 3900 | > 20000 | > 20000 | 620 | > 20000 | – | > 20000 | 7440 | > 20000 | > 20000 | > 20000 |
| FKYFKEDAAKYSKTQ [Peptide 90.0206] | > 20000 | 1700 | 63 | 865 | 19 | 451 | 6860 | – | – | 399 | 835 | 303 | 1700 |
| IHFLQGAIISFVNSN [Peptide 89.0089] | 272 | 442 | 4.2 | 54 | 499 | > 20000 | 2610 | 1020 | > 20000 | 71 | 1900 | – | – |
| KVAMLDDATHTCWTY [Peptide 90.0105] | 21 | > 20000 | 253 | 2230 | 34 | 410 | 279 | – | > 20000 | 9280 | 8180 | 2260 | > 20000 |
| LKVLIKQHSLYTHLQ [Peptide 89.0061] | 11 | 30 | 4.3 | 18 | 17 | 1830 | 687 | 451 | – | 33 | 57 | 43 | – |
| SNLLSIPETCMVIEP [Peptide 89.0067] | 963 | 350 | 347 | 510 | 320 | > 20000 | 18 | – | > 20000 | 3860 | 16800 | 12800 | 1310 |
| VTAIFGVNPTIAEGF [Peptide 89.0023] | 544 | 193 | 1140 | 5700 | 836 | 3420 | 100 | – | > 20000 | 6580 | > 20000 | > 20000 | 2910 |
| YFKYFKEDAAKYSKT [Peptide 90.0205] | > 20000 | > 20000 | – | 3910 | 70 | 483 | > 20000 | 3630 | 4660 | 8050 | 6030 | 1890 | – |
| YKTLFVDVTSTYHWT [Peptide 90.0241] | > 20000 | 71 | 4030 | – | 75 | 56 | 549 | 647 | 5500 | 3900 | 14100 | 4200 | 2230 |
